Reference: the NIST ThermoML archive (doi:10.1016/j.fluid.2010.01.007)
± gives the expanded uncertainty stated by the source.

Assay: activity coefficient (dimensionless); of the first substance listed, at infinite dilution; xn = mol fraction of the nth substance listed
Settings: Liquid, Chromatography, x1 = 0

SMILES | activity coefficient (325.2 K) | activity coefficient (334.8 K) | activity coefficient (344.3 K) | activity coefficient (353.9 K) | activity coefficient (363.4 K)
CCCCC1CO1 (stereo unspecified) [1,2-epoxyhexane] + CCCCn1cc[n+](C)c1.F[B-](F)(F)F | 5.7 ± 0.2 | 5.31 ± 0.19 | 5.3 ± 0.19 | 5.14 ± 0.18 | 5.2 ± 0.18
CCCCC1CO1 (stereo unspecified) [1,2-epoxyhexane] + CCCCn1cc[n+](C)c1.F[P-](F)(F)(F)(F)F |  | 1.94 ± 0.07 | 2.19 ± 0.08 | 2.2 ± 0.08 | 2.14 ± 0.08
CC1(C)CO1 [2,2-dimethyloxirane] + CCCCn1cc[n+](C)c1.F[B-](F)(F)F | 2.19 ± 0.08 | 2.13 ± 0.07 | 2.11 ± 0.07 | 2.06 ± 0.07 | 2.18 ± 0.08
CC1(C)CO1 [2,2-dimethyloxirane] + CCCCn1cc[n+](C)c1.F[P-](F)(F)(F)(F)F |  | 1.09 ± 0.03 | 1.12 ± 0.03 | 1.21 ± 0.03 | 1.19 ± 0.04
CCC1CO1 (stereo unspecified) [ethyloxirane] + CCCCn1cc[n+](C)c1.F[B-](F)(F)F | 2.62 ± 0.09 | 2.14 ± 0.08 | 2.08 ± 0.07 | 2.05 ± 0.07 | 2.1 ± 0.07
CCC1CO1 (stereo unspecified) [ethyloxirane] + CCCCn1cc[n+](C)c1.F[P-](F)(F)(F)(F)F |  | 1.13 ± 0.03 | 1.13 ± 0.03 | 1.19 ± 0.03 | 1.16 ± 0.03
CC1CO1 (stereo unspecified) [methyloxirane] + CCCCn1cc[n+](C)c1.F[B-](F)(F)F | 1.35 ± 0.04 | 1.33 ± 0.04 | 1.27 ± 0.03 | 1.32 ± 0.04 | 1.41 ± 0.04
CC1CO1 (stereo unspecified) [methyloxirane] + CCCCn1cc[n+](C)c1.F[P-](F)(F)(F)(F)F |  | 0.838 ± 0.021 | 0.828 ± 0.021 | 0.893 ± 0.021 | 0.872 ± 0.024
